Experimental data: ChEMBL document CHEMBL3272130, “Synthesis and hypotensive activity of some cyclopentano-1,2,3,4-tetrahydroisoquinolines” (J Med Chem, 1977)

Columns and labels:
[1] = Toxicity in ip dosed Swiss-Webster mouse after 24 hrs; assay type: organism-based; conditions: in vivo
[2] = system: Rattus norvegicus; assay: Hypotensive activity in deoxycorticosterone acetate treated hypertensive CD rat assessed as change in blood pressure at 50 mg, ip after 2 hrs relative to control; assay type: functional
[3] = system: Rattus norvegicus; assay: Cardiovascular activity in deoxycorticosterone acetate treated hypertensive CD rat assessed as change in heart rate at 50 mg, ip after 4 hrs relative to control; assay type: ADME, organism-based; conditions: in vivo
[4] = system: Rattus norvegicus; assay: Cardiovascular activity in deoxycorticosterone acetate treated hypertensive CD rat assessed as change in heart rate at 50 mg, ip after 1 hr relative to control; assay type: ADME, organism-based; conditions: in vivo
[5] = system: Rattus norvegicus; assay: Cardiovascular activity in deoxycorticosterone acetate treated hypertensive CD rat assessed as change in heart rate at 50 mg, ip after 24 hrs relative to control; assay type: ADME, organism-based; conditions: in vivo
[6] = system: Rattus norvegicus; assay: Hypotensive activity in deoxycorticosterone acetate treated hypertensive CD rat assessed as change in blood pressure at 50 mg, ip after 4 hrs relative to control; assay type: functional
[7] = system: Rattus norvegicus; assay: Cardiovascular activity in deoxycorticosterone acetate treated hypertensive CD rat assessed as change in heart rate at 50 mg, ip after 2 hrs relative to control; assay type: ADME, organism-based; conditions: in vivo
[8] = system: Rattus norvegicus; assay: Hypotensive activity in deoxycorticosterone acetate treated hypertensive CD rat assessed as change in blood pressure at 50 mg, ip after 24 hrs relative to control; assay type: functional
[9] = system: Rattus norvegicus; assay: Hypotensive activity in deoxycorticosterone acetate treated hypertensive CD rat assessed as change in blood pressure at 50 mg, ip after 1 hr relative to control; assay type: functional
[10] = system: Rattus norvegicus; assay: Hypotensive activity in deoxycorticosterone acetate treated hypertensive CD rat assessed as change in blood pressure at 100 mg, ip after 4 hrs relative to control; assay type: functional
[11] = system: Rattus norvegicus; assay: Hypotensive activity in deoxycorticosterone acetate treated hypertensive CD rat assessed as change in blood pressure at 100 mg, ip after 24 hrs relative to control; assay type: functional
[12] = system: Rattus norvegicus; assay: Cardiovascular activity in deoxycorticosterone acetate treated hypertensive CD rat assessed as change in heart rate at 100 mg, ip after 24 hrs relative to control; assay type: ADME, organism-based; conditions: in vivo
[13] = system: Rattus norvegicus; assay: Hypotensive activity in deoxycorticosterone acetate treated hypertensive CD rat assessed as change in blood pressure at 20 mg, ip after 4 hrs relative to control; assay type: functional
[14] = system: Rattus norvegicus; assay: Cardiovascular activity in deoxycorticosterone acetate treated hypertensive CD rat assessed as change in heart rate at 20 mg, ip after 2 hrs relative to control; assay type: ADME, organism-based; conditions: in vivo
[15] = system: Rattus norvegicus; assay: Hypotensive activity in deoxycorticosterone acetate treated hypertensive CD rat assessed as change in blood pressure at 100 mg, ip after 1 hr relative to control; assay type: functional
[16] = system: Rattus norvegicus; assay: Hypotensive activity in deoxycorticosterone acetate treated hypertensive CD rat assessed as change in blood pressure at 100 mg, ip after 2 hrs relative to control; assay type: functional
[17] = system: Rattus norvegicus; assay: Cardiovascular activity in deoxycorticosterone acetate treated hypertensive CD rat assessed as change in heart rate at 100 mg, ip after 2 hrs relative to control; assay type: ADME, organism-based; conditions: in vivo
[18] = system: Rattus norvegicus; assay: Hypotensive activity in deoxycorticosterone acetate treated hypertensive CD rat assessed as change in blood pressure at 20 mg, ip after 1 hr relative to control; assay type: functional
[19] = system: Rattus norvegicus; assay: Hypotensive activity in deoxycorticosterone acetate treated hypertensive CD rat assessed as change in blood pressure at 20 mg, ip after 24 hrs relative to control; assay type: functional
[20] = system: Rattus norvegicus; assay: Cardiovascular activity in deoxycorticosterone acetate treated hypertensive CD rat assessed as change in heart rate at 20 mg, ip after 1 hr relative to control; assay type: ADME, organism-based; conditions: in vivo
[21] = system: Rattus norvegicus; assay: Hypotensive activity in deoxycorticosterone acetate treated hypertensive CD rat assessed as change in blood pressure at 20 mg, ip after 2 hrs relative to control; assay type: functional
[22] = system: Rattus norvegicus; assay: Cardiovascular activity in deoxycorticosterone acetate treated hypertensive CD rat assessed as change in heart rate at 20 mg, ip after 24 hrs relative to control; assay type: ADME, organism-based; conditions: in vivo
[23] = system: Rattus norvegicus; assay: Cardiovascular activity in deoxycorticosterone acetate treated hypertensive CD rat assessed as change in heart rate at 100 mg, ip after 4 hrs relative to control; assay type: ADME, organism-based; conditions: in vivo
[24] = system: Rattus norvegicus; assay: Cardiovascular activity in deoxycorticosterone acetate treated hypertensive CD rat assessed as change in heart rate at 100 mg, ip after 1 hr relative to control; assay type: ADME, organism-based; conditions: in vivo
[25] = system: Rattus norvegicus; assay: Cardiovascular activity in deoxycorticosterone acetate treated hypertensive CD rat assessed as change in heart rate at 20 mg, ip after 4 hrs relative to control; assay type: ADME, organism-based; conditions: in vivo
[26] = system: Rattus norvegicus; assay: Cardiovascular activity in deoxycorticosterone acetate treated hypertensive CD rat assessed as change in heart rate at 10 mg, ip after 24 hrs relative to control; assay type: ADME, organism-based; conditions: in vivo
[27] = system: Rattus norvegicus; assay: Cardiovascular activity in deoxycorticosterone acetate treated hypertensive CD rat assessed as change in heart rate at 10 mg, ip after 1 hr relative to control; assay type: ADME, organism-based; conditions: in vivo
[28] = system: Rattus norvegicus; assay: Cardiovascular activity in deoxycorticosterone acetate treated hypertensive CD rat assessed as change in heart rate at 10 mg, ip after 4 hrs relative to control; assay type: ADME, organism-based; conditions: in vivo
[29] = system: Rattus norvegicus; assay: Hypotensive activity in deoxycorticosterone acetate treated hypertensive CD rat assessed as change in blood pressure at 10 mg, ip after 4 hrs relative to control; assay type: functional
[30] = system: Rattus norvegicus; assay: Hypotensive activity in deoxycorticosterone acetate treated hypertensive CD rat assessed as change in blood pressure at 10 mg, ip after 1 hr relative to control; assay type: functional
[31] = system: Rattus norvegicus; assay: Hypotensive activity in deoxycorticosterone acetate treated hypertensive CD rat assessed as change in blood pressure at 10 mg, ip after 2 hrs relative to control; assay type: functional
[32] = system: Rattus norvegicus; assay: Cardiovascular activity in deoxycorticosterone acetate treated hypertensive CD rat assessed as change in heart rate at 10 mg, ip after 2 hrs relative to control; assay type: ADME, organism-based; conditions: in vivo
[33] = system: Rattus norvegicus; assay: Hypotensive activity in deoxycorticosterone acetate treated hypertensive CD rat assessed as change in blood pressure at 10 mg, ip after 24 hrs relative to control; assay type: functional

SMILES | LD50 at 24 h [1] [mg/kg] | Activity [2] [%] | Activity [3] [%] | Activity [4] [%] | Activity [5] [%] | Activity [6] [%] | Activity [7] [%] | Activity [8] [%] | Activity [9] [%] | Activity [13] [%] | Activity [14] [%] | Activity [18] [%] | Activity [19] [%] | Activity [20] [%] | Activity [21] [%] | Activity [22] [%] | Activity [25] [%] | also measured
Br.CN1CCc2c(O)c(O)c3c(c2C1)CCC3 | 160 | -3.5 | 4.6 | -1.9 | -8.6 | -5.7 | 5.1 | -8.6 | -9.1 |  |  |  |  |  |  |  |  | 
COc1ccc(CC(=O)N2CCc3c(c4c(c(OC)c3OC)CCC4)C2)cc1OC | 500 |  |  |  |  |  |  |  |  |  |  |  |  |  |  |  |  | 
COc1ccc(CN2CCc3c4c(c(OC)c(OC)c3C2)CCC4)cc1OC.Cl | 141 | -4.2 | 10.2 | 13 | -1.3 | -0.7 | 9 | 0.9 | -8.8 |  |  |  |  |  |  |  |  | 
Br.COc1ccc(CCN2CCc3c(c4c(c(OC)c3OC)CCC4)C2)cc1OC | 100 |  |  |  |  |  |  |  |  |  |  |  |  |  |  |  |  | 
COc1c2c(c3c(c1OC)CN(CC(c1ccccc1)c1ccccc1)CC3)CCC2 | > 1000 |  |  |  |  |  |  |  |  | -2.9 | 10.7 | 1.4 | -3 | 7.4 | 1.1 | -5 | 0.8 | Activity [10]: -11.2%; Activity [11]: -3.6%; Activity [12]: -2.4%; Activity [15]: -10.7%; Activity [16]: -12.7%; Activity [17]: 2.4%; Activity [23]: 2.4%; Activity [24]: 8.7%
Br.CN1CCc2c(c(O)c(O)c3c2CCC3)C1 | 150 | 2.6 | 4.1 | 8.2 | 3 | 3 | 4.8 | -3.6 | -1.1 |  |  |  |  |  |  |  |  | 
Br.CCC(C)CN1CCc2c3c(c(OC)c(OC)c2C1)CCC3 (stereo not given) | 100 |  |  |  |  |  |  |  |  | -7 | 7.3 | -13.1 | -1.6 | 7.8 | -8.1 | -5.5 | 3.4 | Activity [26]: -2.4%; Activity [27]: 3.6%; Activity [28]: -4.3%; Activity [29]: 0.7%; Activity [30]: -12.2%; Activity [31]: -1.9%; Activity [32]: -4.2%; Activity [33]: -2.6%
CC(=O)Oc1c2c(c3c(c1OC(C)=O)CCN(C)C3)CCC2 | 150 |  |  |  |  |  |  |  |  |  |  |  |  |  |  |  |  | 
COc1c2c(c3c(c1OC)CCN(C(=O)C(c1ccccc1)c1ccccc1)C3)CCC2 | 200 |  |  |  |  |  |  |  |  |  |  |  |  |  |  |  |  | 
COc1ccc(C(=O)N2CCc3c(c4c(c(OC)c3OC)CCC4)C2)cc1OC | > 1000 |  |  |  |  |  |  |  |  |  |  |  |  |  |  |  |  | Activity [10]: -3.4%; Activity [11]: -6%; Activity [12]: -6.5%; Activity [15]: -12.1%; Activity [16]: -8.8%; Activity [17]: 3.4%; Activity [23]: -1.2%; Activity [24]: 0.2%
C[C@](N)(Cc1ccc(O)c(O)c1)C(=O)O [METHYLDOPA] |  | -50 | 31 | 106.2 | -19.3 | -47.7 | 104.1 | -16.5 | -31 |  |  |  |  |  |  |  |  | 
CC(=O)Oc1c2c(c3c(c1OC(C)=O)CN(C)CC3)CCC2.O=C(O)C(F)(F)F | 200 | 5.2 | 2.6 | 14.6 | 0.3 | -0.6 | 7.3 | -5.1 | -13.1 |  |  |  |  |  |  |  |  | 
COc1ccc(C(=O)N2CCc3c4c(c(OC)c(OC)c3C2)CCC4)cc1OC | 150 |  |  |  |  |  |  |  |  | -3.1 | 8.9 | -4 | 5.6 | 3.8 | -1.4 | 5.7 | 2.2 | 
COc1c2c(c3c(c1OC)CNCC3)CCC2 | 79 |  |  |  | -3.8 |  |  | -16.8 |  | -3.9 | 16.9 | -3.9 | -0.2 | 10.2 | -4 | 7.4 | 11 | Activity [26]: -9.1%; Activity [27]: 5.8%; Activity [28]: 3.9%; Activity [29]: -14.2%; Activity [30]: -3.1%; Activity [31]: -3.4%; Activity [32]: 8.1%; Activity [33]: -7.2%
COc1ccc(CC(=O)N2CCc3c4c(c(OC)c(OC)c3C2)CCC4)cc1OC | 160 |  |  |  |  |  |  |  |  | -6.3 | 1.8 | 5.4 | -3.1 | 1.9 | -3.9 | -6.7 | 1.3 | 
Br.COc1ccc(CCN2CCc3c4c(c(OC)c(OC)c3C2)CCC4)cc1OC | 125 | -11.3 | 5.4 | 22 | 2.4 | -6.6 | 17.6 | -2.8 | -26 |  |  |  |  |  |  |  |  | 
COc1c2c(c3c(c1OC)CN(CCC(c1ccccc1)c1ccccc1)CC3)CCC2 | 1000 |  |  |  |  |  |  |  |  |  |  |  |  |  |  |  |  | Activity [10]: -6.7%; Activity [11]: -7%; Activity [12]: 0.6%; Activity [15]: -3.5%; Activity [16]: -7.9%; Activity [17]: 4.6%; Activity [23]: 0.8%; Activity [24]: 4%
Br.COc1c2c(c3c(c1OC)CN(C)CC3)CCC2 | 100 | -2.9 | 1.6 | -8.7 | -3.8 | -6.3 | -4.4 | -4.6 | -3 | -4.2 | 9.2 | 6.3 | -2.9 | 3.5 | 5.5 | 1.5 | 8.5 | 
COc1c2c(c3c(c1OC)CCN(CC(c1ccccc1)c1ccccc1)C3)CCC2 | > 1000 |  |  |  |  |  |  |  |  |  |  |  |  |  |  |  |  | Activity [10]: -2%; Activity [11]: 4%; Activity [12]: -0.5%; Activity [15]: -5%; Activity [16]: -3.4%; Activity [17]: 25.4%; Activity [23]: 8.6%; Activity [24]: 18.5%
COc1c2c(c3c(c1OC)CN(C(=O)CC(c1ccccc1)c1ccccc1)CC3)CCC2 | 100 |  |  |  |  |  |  |  |  | -5 | 15.8 | -4.4 | -2.1 | 16.8 | -6.9 | -1.8 | 2.4 | 
Br.COc1ccc(CN2CCc3c(c4c(c(OC)c3OC)CCC4)C2)cc1OC | 200 | -2.4 | 1 | 0.4 | -9.1 | -1 | 0.4 | 3.3 | -8.4 |  |  |  |  |  |  |  |  | 
